According to ChEMBL document CHEMBL4321839, “Structure-activity relationships (SAR) of triazine derivatives: Promising antimicrobial agents” (Eur J Med Chem, 2020):
Converted amounts (≈) assume the structure as drawn.

Tests used:
Staphylococcus aureus [1] = assay: Antimicrobial activity against Staphylococcus aureus NCIM-2079 assessed as reduction in microbial growth after 24 hrs by CLSI based broth dilution method; assay type: functional; details: NCIM-2079, 24 h
Bacillus subtilis = assay: Antimicrobial activity against Bacillus subtilis NCIM-2063 assessed as reduction in microbial growth after 24 hrs by CLSI based broth dilution method; assay type: functional; details: NCIM-2063, 24 h
Bacillus cereus [2] = assay: Antimicrobial activity against Bacillus cereus NCIM-2156 assessed as reduction in microbial growth after 24 hrs by CLSI based broth dilution method; assay type: functional; details: NCIM-2156, 24 h
Proteus vulgaris = assay: Antimicrobial activity against Proteus vulgaris NCIM-2027 assessed as reduction in microbial growth after 24 hrs by CLSI based broth dilution method; assay type: functional; details: NCIM-2027, 24 h
Escherichia coli [3] = assay: Antimicrobial activity against Escherichia coli NCIM-2065 assessed as reduction in microbial growth after 24 hrs by CLSI based broth dilution method; assay type: functional; details: NCIM-2065, 24 h
Escherichia coli [4] = assay: Antimicrobial activity against Escherichia coli after 24 hrs by agar well diffusion assay; assay type: functional
Bacillus cereus [5] = assay: Antibacterial activity against Bacillus cereus NCIM-2458 assessed as reduction in microbial growth incubated for 24 hrs by broth dilution method; assay type: functional; details: NCIM-2458, 24 h
Lacticaseibacillus casei = assay: Antibacterial activity against Lactobacillus casei NCIM-2651 assessed as reduction in microbial growth incubated for 24 hrs by broth dilution method; assay type: functional; details: NCIM-2651, 24 h
Staphylococcus aureus [6] = assay: Antimicrobial activity methicillin-resistant against Staphylococcus aureus; assay type: functional
Proteus mirabilis = assay: Antimicrobial activity against Proteus mirabilis assessed as zone of inhibition after 18 hrs by disk diffusion method; assay type: functional
Aspergillus clavatus = assay: Antifungal activity against Aspergillus clavatus MTCC 1323 assessed as reduction in microbial growth after 48 hrs by broth dilution method; assay type: functional; details: MTCC 1323, 48 h
Escherichia coli [7] = assay: Antimicrobial activity against Escherichia coli assessed as zone of inhibition after 18 hrs by disk diffusion method; assay type: functional
Staphylococcus aureus [8] = assay: Antimicrobial activity against Staphylococcus aureus MTCC 96 assessed as reduction in microbial growth after 24 hrs by broth dilution method; assay type: functional; details: MTCC 96, 24 h
Staphylococcus aureus [9] = assay: Antimicrobial activity against methicillin-resistant Staphylococcus aureus MW2 assessed as reduction in microbial growth after 18 hrs by broth microdilution method; assay type: functional; details: MW2, 18 h
Enterococcus faecium [10] = assay: Antimicrobial activity against Enterococcus faecium ATCC E007 assessed as reduction in microbial growth after 18 hrs by broth microdilution method; assay type: functional; details: ATCC E007, 18 h
Enterococcus faecium [11] = assay: Antimicrobial activity against vancomycin-resistant Enterococcus faecium ATCC 51559 assessed as reduction in microbial growth incubated for 18 to 24 hrs by two-fold serial dilution method; assay type: functional
Staphylococcus aureus [12] = assay: Antimicrobial activity against methicillin-resistant Staphylococcus aureus assessed as reduction in microbial growth after 24 to 48 hrs by microdilution susceptibility test; assay type: functional
Staphylococcus aureus [13] = assay: Antimicrobial activity against Staphylococcus aureus […] assessed as reduction in microbial growth after 24 to 48 hrs by microdilution susceptibility test; assay type: functional
Escherichia coli [14] = assay: Antimicrobial activity against multi drug-resistant Escherichia coli assessed as reduction in microbial growth after 24 to 48 hrs by microdilution susceptibility test; assay type: functional
Klebsiella pneumoniae = assay: Antimicrobial activity against multi drug-resistant Klebsiella pneumoniae assessed as reduction in microbial growth by two-fold serial dilution method; assay type: functional
Escherichia coli [15] = assay: Antimicrobial activity against Escherichia coli ATCC 25922 assessed as reduction in microbial growth after 24 to 48 hrs by microdilution susceptibility test; assay type: functional
Staphylococcus aureus [16] = assay: Antimicrobial activity against methicillin-resistant Staphylococcus aureus clinical isolate MRSA1 assessed as reduction in microbial growth by two-fold serial dilution method; assay type: functional
Escherichia coli [17] = assay: Antimicrobial activity against Escherichia coli MTCC 443 assessed as reduction in microbial growth after 24 to 48 hrs by broth dilution method; assay type: functional
Pseudomonas aeruginosa = assay: Antimicrobial activity against Pseudomonas aeruginosa MTCC 1688 assessed as reduction in microbial growth after 24 to 48 hrs by broth dilution method; assay type: functional
Helicobacter pylori = assay: Antimicrobial activity against Helicobacter pylori assessed as zone of inhibition; assay type: functional
Staphylococcus aureus [18] = assay: Antimicrobial activity against quinolone-resistant Staphylococcus aureus CCARM 3505 assessed as reduction in microbial growth by serial dilution method; assay type: functional
Staphylococcus aureus [19] = assay: Antimicrobial activity against methicillin-resistant Staphylococcus aureus CCARM 3167 assessed as reduction in microbial growth by serial dilution method; assay type: functional
Staphylococcus aureus [20] = assay: Antimicrobial activity against methicillin-resistant Staphylococcus aureus CCARM 3506 assessed as reduction in microbial growth by serial dilution method; assay type: functional
Staphylococcus aureus [21] = assay: Antimicrobial activity against quinolone-resistant Staphylococcus aureus CCARM 3519 assessed as reduction in microbial growth by serial dilution method; assay type: functional
HepG2 = assay: Cytotoxicity against human HepG2 cells; assay type: cell-based

**Q.** What does the source list for `O=C1CSC(c2ccc([N+](=O)[O-])cc2)N1c1nc(Nc2ccc([N+](=O)[O-])cc2)nc(Nc2ccc([N+](=O)[O-])cc2)n1` (stereo unspecified)?
**A.** MIC (Staphylococcus aureus [1]): 1.95 to 15.6 µg/mL; MIC (Bacillus subtilis): 1.95 to 15.6 µg/mL; MIC (Bacillus cereus [2]): 1.95 to 15.6 µg/mL; MIC (Proteus vulgaris): 1.95 to 15.6 µg/mL; MIC (Escherichia coli [3]): 1.95 to 15.6 µg/mL

**Q.** Which MIC (Escherichia coli [4]) does the source give for `CC1(C)c2ccccc2Oc2nc(Cl)nc(n2)OCc2cccc(n2)COc2nc(Cl)nc(n2)Oc2ccccc21` here?
**A.** 50 µg/mL (≈ 84.7 µM)

**Q.** `Nc1nc(Nc2ccccc2)nc(Nc2nc(-c3ccc(Cl)c(Cl)c3)cs2)n1` was tested. Which MIC (Bacillus cereus [5]) did it give?
**A.** 3.12 µg/mL

**Q.** And the MIC (Lacticaseibacillus casei)?
**A.** 3.12 µg/mL

**Q.** Which MIC (Staphylococcus aureus [6]) does the source give for `O=C(O)c1cn(C2CC2)c2cc(N3CCNCC3)c(F)cc2c1=O` [CIPROFLOXACIN] here?
**A.** 4 µg/mL (≈ 12.1 µM)

**Q.** What about the “inhibition zone (IZ)” value (Proteus mirabilis) of the same compound?
**A.** 22 mm

**Q.** How did the MIC (Aspergillus clavatus) turn out when `COc1nc(Sc2ccc(Cl)cc2)nc(-c2ccc(C#N)cc2)n1` was run?
**A.** 3.12 µg/mL

**Q.** Which “inhibition zone (IZ)” value (Proteus mirabilis) does the source give for `CCOc1ccc(/C=N/NC(=O)Cn2c3ccccc3c3nnc(SCC(=O)CN/N=C/Cc4ccc(OCC)cc4)nc32)cc1` here?
**A.** 22 mm

**Q.** And the “inhibition zone (IZ)” value (Escherichia coli [7])?
**A.** 22 mm

**Q.** Which MIC (Staphylococcus aureus [8]) does the source give for `COc1nc(Sc2ccc(F)cc2)nc(-c2ccc(C#N)cc2)n1` here?
**A.** 3.12 µg/mL

**Q.** How did the MIC (Staphylococcus aureus [9]) turn out when `CC(C)(C)Nc1nc(NN)nc(NC(C)(C)C)n1` was run?
**A.** 8 µg/mL

**Q.** And the MIC (Enterococcus faecium [10])?
**A.** 8 µg/mL

**Q.** With `CC[C@H](C)[C@H](NC(=O)CN)C(=O)NCC(=O)N[C@@H](C)C(=O)N[C@H](C(=O)N[C@@H](CC(C)C)C(=O)N[C@@H](CCCCN)C(=O)N[C@H](C(=O)N[C@@H](CC(C)C)C(=O)N[C@H](C(=O)N[C@H](C(=O)NCC(=O)N[C@@H](CC(C)C)C(=O)N1CCC[C@H]1C(=O)N[C@@H](C)C(=O)N[C@@H](CC(C)C)C(=O)N[C@H](C(=O)N[C@@H](CO)C(=O)N[C@@H](Cc1c[nH]c2ccccc12)C(=O)N[C@H](C(=O)N[C@@H](CCCCN)C(=O)N[C@@H](CCCNC(=N)N)C(=O)N[C@@H](CCCCN)C(=O)N[C@@H](CCCNC(=N)N)C(=O)N[C@@H](CCC(N)=O)C(=O)N[C@@H](CCC(N)=O)C(N)=O)[C@@H](C)CC)[C@@H](C)CC)[C@@H](C)O)[C@@H](C)O)C(C)C)C(C)C` [MELITTIN] as the compound, how does the MIC (Enterococcus faecium [11]) read?
**A.** 2 µM

**Q.** How did the MIC (Staphylococcus aureus [12]) turn out when `CC1(C)S[C@@H]2[C@H](NC(=O)[C@H](N)c3ccccc3)C(=O)N2[C@H]1C(=O)O` [AMPICILLIN] was run?
**A.** > 250 µg/mL

**Q.** What about the MIC (Staphylococcus aureus [13]) of the same compound?
**A.** 12.5 µg/mL

**Q.** What about the MIC (Escherichia coli [14]) of the same compound?
**A.** > 250 µg/mL

**Q.** And the MIC (Klebsiella pneumoniae)?
**A.** 12.5 µg/mL

**Q.** What about the MIC (Escherichia coli [15]) of the same compound?
**A.** 25 µg/mL

**Q.** What about the MIC (Staphylococcus aureus [16]) of the same compound?
**A.** 6.25 µg/mL

**Q.** And the MIC (Escherichia coli [17])?
**A.** 100 µg/mL

**Q.** And the MIC (Pseudomonas aeruginosa)?
**A.** 100 µg/mL

**Q.** `Nc1nc(-n2c(-c3ccc([N+](=O)[O-])cc3)nc3ccccc3c2=O)nnc1-c1ccccc1` was tested. Which MIC (Helicobacter pylori) did it give?
**A.** 25 µg/mL (≈ 57.2 µM)

**Q.** How did the MIC (Staphylococcus aureus [18]) turn out when `NC1=NC(c2ccc3cc(OCc4ccc(Cl)cc4Cl)ccc3c2)N=C(N2CCOCC2)N1` (stereo unspecified) was run?
**A.** 2.1 µM

**Q.** And the MIC (Staphylococcus aureus [19])?
**A.** 2.1 µM

**Q.** And the MIC (Staphylococcus aureus [20])?
**A.** 2.1 µM

**Q.** And the MIC (Staphylococcus aureus [21])?
**A.** 2.1 µM

**Q.** And the IC50 (HepG2)?
**A.** 34.3 µM
